Data published in patent US10221138B2, “Biaryl derivatives as GPR120 agonists” (LG CHEM, LTD., priority 2013, dated 2019).

Molecular target: T1, hGPR120 (Homo sapiens, UniProt Q5NUL3)
T1 construct: expressed in transfected cells; host or cells: CHO-K1
T1 sequence (Q5NUL3 1-361): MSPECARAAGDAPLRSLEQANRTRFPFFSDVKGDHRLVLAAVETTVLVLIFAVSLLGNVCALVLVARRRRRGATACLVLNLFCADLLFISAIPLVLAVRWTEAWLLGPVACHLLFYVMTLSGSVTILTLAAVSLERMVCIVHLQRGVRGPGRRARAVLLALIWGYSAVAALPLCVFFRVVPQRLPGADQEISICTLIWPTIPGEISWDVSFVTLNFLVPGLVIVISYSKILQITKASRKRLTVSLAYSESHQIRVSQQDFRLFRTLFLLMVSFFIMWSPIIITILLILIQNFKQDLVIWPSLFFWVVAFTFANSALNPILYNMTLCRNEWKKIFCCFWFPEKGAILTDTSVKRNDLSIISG
Experiment: Measurement of activity of GPR120 agonist (cell-based calcium fluorescence assay)
Settings: CHO-K1 cells expressing Ga16 and hGPR120, Calcium 5 dye fluorescence; activity class; read-out: EC50
In short: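 CHO-K1 cells co-expressing Gα16 and hGPR120, plated 18 h, loaded with Calcium 5 dye for 1 h at 37 °C, then given serially diluted agonists (final 0.5% DMSO). Fluorescence increase expressed as relative % of the 1% DMSO-only signal.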

EC50	SMILES
< 200 nM	O=C(O)CCCSc1ccc(-c2cccc(OC3CCCC3)c2)cc1 [Example 126, 4-(3′-cyclopentyloxy-biphenyl-4-ylsulfanyl)-butyric acid]
< 200 nM	CCCOc1cccc(-c2ccc(SCCCC(=O)O)cc2)c1 [Example 127, 4-(3′-propoxy-biphenyl-4-ylsulfanyl)-butyric acid]
200 to 2000 nM	O=C(O)CCCSc1ccc(-c2cccc(OC3CCCC3)n2)cc1 [Example 129, 4-[4-(6-cyclopentyloxy-pyridin-2-yl)-phenylsulfanyl]-butyric acid]
< 200 nM	CC(C)Oc1cccc(-c2ccc(SCCCC(=O)O)cc2)n1 [Example 130, 4-[4-(6-isopropoxy-pyridin-2-yl)-phenylsulfanyl]-butyric acid]
200 to 2000 nM	CC(C)Oc1ncccc1-c1ccc(SCCCC(=O)O)cc1 [Example 131, 4-[4-(2-isopropoxy-pyridin-3-yl)-phenylsulfanyl]-butyric acid]
< 200 nM	CCCOc1cccc(-c2ccc(SCCCC(=O)O)cc2)n1 [Example 132, 4-[4-(6-propoxy-pyridin-2-yl)-phenylsulfanyl]-butyric acid]
200 to 2000 nM	O=C(O)CCCSc1ccc(-c2cccc(SC3CCCC3)n2)cc1 [Example 133, 4-[4-(6-cyclopentylsulfanyl-pyridin-2-yl)-phenylsulfanyl]-butyric acid]
< 200 nM	CCCOc1cccc(-c2cc(F)c(SCCCC(=O)O)c(F)c2)n1 [Example 136, 4-[2,6-difluoro-4-(6-propoxy-pyridin-2-yl)-phenylsulfanyl]-butyric acid]
< 200 nM	CC(C)Oc1cccc(-c2cc(F)c(SCCCC(=O)O)c(F)c2)n1 [Example 137, 4-[2,6-difluoro-4-(6-isopropoxy-pyridin-2-yl)-phenylsulfanyl]-butyric acid]
< 200 nM	CC(C)Oc1ncccc1-c1cc(F)c(SCCCC(=O)O)c(F)c1 [Example 138, 4-[2,6-difluoro-4-(2-isopropoxy-pyridin-3-yl)-phenylsulfanyl]-butyric acid]
< 200 nM	CCCOc1ncccc1-c1cc(F)c(SCCCC(=O)O)c(F)c1 [Example 139, 4-[2,6-difluoro-4-(2-propoxy-pyridin-3-yl)-phenylsulfanyl]-butyric acid]
< 200 nM	CC(C)Sc1cccc(-c2cc(F)c(SCCCC(=O)O)c(F)c2)n1 [Example 140, 4-[2,6-difluoro-4-(6-isopropylsulfanyl-pyridin-2-yl)-phenylsulfanyl]-butyric acid]
< 200 nM	CCCSc1cccc(-c2cc(F)c(SCCCC(=O)O)c(F)c2)n1 [Example 141, 4-[2,6-difluoro-4-(6-propylsulfanyl-pyridin-2-yl)-phenylsulfanyl]-butyric acid]
< 200 nM	O=C(O)CCCSc1c(F)cc(-c2cccnc2SC2CCC2)cc1F [Example 142, 4-[4-(2-cyclobutylsulfanyl-pyridin-3-yl)-2,6-difluoro-phenylsulfanyl]-butyric acid]
< 200 nM	O=C(O)CCCSc1c(F)cc(-c2cccnc2OC2CCCC2)cc1F [Example 145, 4-[4-(2-cyclopentyloxy-pyridin-3-yl)-2,6-difluoro-phenylsulfanyl]-butyric acid]
< 200 nM	CC(C)Sc1ncccc1-c1cc(F)c(SCCCC(=O)O)c(F)c1 [Example 146, 4-[2,6-difluoro-4-(2-isopropylsulfanyl-pyridin-3-yl)-phenylsulfanyl]-butyric acid]
< 200 nM	O=C(O)CCCSc1c(F)cc(-c2cccnc2SC2CCCC2)cc1F [Example 147, 4-[4-(2-cyclopentylsulfanyl-pyridin-3-yl)-2,6-difluoro-phenylsulfanyl]-butyric acid]
< 200 nM	CC(C)Sc1ncccc1-c1ccc(SCCCC(=O)O)cc1 [Example 148, 4-[4-(2-isopropylsulfanyl-pyridin-3-yl)-phenylsulfanyl]-butyric acid]
< 200 nM	O=C(O)CCCSc1ccc(-c2cccnc2SC2CCCC2)cc1 [Example 149, 4-[4-(2-cyclopentylsulfanyl-pyridin-3-yl)-phenylsulfanyl]-butyric acid]

EC50	SMILES
< 200 nM	O=C(O)CCCSc1ccc(-c2cccnc2SC2CCC2)cc1F [Example 152, 4-[4-(2-cyclobutylsulfanyl-pyridin-3-yl)-2-fluoro-phenylsulfanyl]-butyric acid]
< 200 nM	O=C(O)CCCSc1ccc(-c2cccnc2SC2CCC2)cc1 [Example 153, 4-[4-(2-cyclobutylsulfanyl-pyridin-3-yl)-phenylsulfanyl]-butyric acid]
< 200 nM	O=C(O)CCCSc1c(F)cc(-c2cccc(OC3CCCC3)n2)cc1F [Example 155, 4-[4-(6-cyclopentyloxy-pyridin-2-yl)-2,6-difluoro-phenylsulfanyl]-bytyric acid]
< 200 nM	O=C(O)CCCSc1ccc(-c2cccc(SC3CCC3)n2)cc1 [Example 156, 4-[4-(6-cyclobutylsulfanyl-pyridin-2-yl)-phenylsulfanyl]-butyric acid]
< 200 nM	O=C(O)CCCSc1c(F)cc(-c2cccc(SC3CCC3)n2)cc1F [Example 158, 4-[4-(6-cyclobutylsulfanyl-pyridin-2-yl)-2,6-difluoro-phenylsulfanyl]-butyric acid]
< 200 nM	O=C(O)CCCSc1c(F)cc(-c2cccc(SC3CCCC3)n2)cc1F [Example 159, 4-[4-(6-cyclopentylsulfanyl-pyridin-2-yl)-2,6-difluoro-phenylsulfanyl]-butyric acid]
< 200 nM	O=C(O)CCCSc1ccc(-c2ccccc2NC2CCCC2)cc1F [Example 160, 4-(2′-cyclopentylamino-3-fluoro-biphenyl-4-ylsulfanyl)-butyric acid]
< 200 nM	O=C(O)CCCSc1c(F)cc(-c2ccccc2NC2CCCC2)cc1F [Example 161, 4-(2′-cyclopentylamino-3,5-difluoro-biphenyl-4-ylsulfanyl)-butyric acid]
< 200 nM	O=C(O)CCCSc1c(F)cc(-c2ccccc2NCC2CC2)cc1F [Example 162, 4-[2′-(cyclopropylmethyl-amino)-3,5-difluoro-biphenyl-4-ylsulfanyl]-butyric acid]
< 200 nM	CC(C)Sc1ncccc1-c1ccc(SCCCC(=O)O)c(F)c1 [Example 163, 4-[2-fluoro-4-(2-isopropylsulfanyl-pyridin-3-yl)-phenylsulfanyl]butyric acid]
< 200 nM	O=C(O)CCCSc1ccc(-c2cccnc2SC2CCCC2)cc1F [Example 164, 4-[4-(2-cyclopentylsulfanyl-pyridin-3-yl)-2-fluoro-phenylsulfanyl]-butyric acid]
< 200 nM	CC(C)Nc1ccccc1-c1cc(F)c(SCCCC(=O)O)c(F)c1 [Example 165, 4-(3,5-difluoro-2′-isopropylamino-biphenyl-4-ylsulfanyl)-butyric acid]
< 200 nM	CCCNc1ccccc1-c1cc(F)c(SCCCC(=O)O)c(F)c1 [Example 166, 4-(3,5-difluoro-2′-propylamino-biphenyl-4-ylsulfanyl)-butyric acid]
< 200 nM	CCCSc1ncccc1-c1cc(F)c(SCCCC(=O)O)c(F)c1 [Example 168, 4-[2,6-difluoro-4-(2-propylsulfanyl-pyridin-3yl)-phenylsulfanyl]-butyric acid]
< 200 nM	O=C(O)CCCSc1ccc(-c2cccc(SC3CCC3)n2)cc1F [Example 169, 4-[4-(6-cyclobutylsulfanyl-pyridin-2-yl)-2-fluoro-phenylsulfanyl]-butyric acid]
< 200 nM	O=C(O)CCCSc1ccc(-c2cccnc2NC2CCCC2)cc1F [Example 170, 4-[4-(2-cyclopentylamino-pyridin-3-yl)-2-fluoro-phenylsulfanyl]-butyric acid]
< 200 nM	CC(C)Oc1ncccc1-c1ccc(SCCCC(=O)O)c(F)c1 [Example 171, 4-[2-fluoro-4-(2-isopropoxy-pyridin-3-yl)-phenylsulfanyl]-butyric acid]
200 to 2000 nM	O=C(O)CCCSc1ccc(-c2cccnc2N2CCCC2)cc1F [Example 173, 4-[2-fluoro-4-(2-pyrrolidin-1-yl-pyridin-3-yl)-phenylsulfanyl]-butyric acid]
200 to 2000 nM	CC(C)Nc1ncccc1-c1ccc(SCCCC(=O)O)c(F)c1 [Example 174, 4-[2-fluoro-4-(2-isopropylamino-pyridin-3-yl)-phenylsulfanyl]-bytyric acid]

SMILES	EC50
O=C(O)CCCSc1ccc(-c2cccc(OC3CCC3)n2)cc1 [Example 128, 4-[4-(6-cyclobutoxy-pyridin-2-yl)-phenylsulfanyl]-butyric acid]	< 200 nM
O=C(O)CCCSc1c(F)cc(-c2cccc(OC3CCC3)c2)cc1F [Example 134, 4-(3′-cyclobutoxy-3,5-difluoro-biphenyl-4-ylsulfanyl)-butyric acid]	< 200 nM
O=C(O)CCCSc1ccc(-c2cccnc2OC2CCC2)cc1 [Example 143, 4-[4-(2-cyclobutoxy-pyridin-3-yl)-phenylsulfanyl]-butyric acid]	200 to 2000 nM
O=C(O)CCCSc1c(F)cc(-c2cccnc2OC2CCC2)cc1F [Example 144, 4-[4-(2-cyclobutoxy-pyridin-3-yl)-2,6-difluoro-phenylsulfanyl]-butyric acid]	< 200 nM
O=C(O)CCCSc1c(F)cc(-c2cccc(OC3CCC3)n2)cc1F [Example 154, 4-[4-(6-cyclobutoxy-pyridin-2-yl)-2,6-difluoro-phenylsulfanyl]-butyric acid]	< 200 nM
O=C(O)CCCSc1ccc(-c2cccnc2OC2CCC2)cc1F [Example 172, 4-[4-(2-cyclobutoxy-pyridin-3-yl)-2-fluoro-phenylsulfanyl]-butyric acid]	< 200 nM
